We go through three molecules from patent US20100099640A1, “TISSUE DEGENERATION PROTECTION” (priority 2007, published 2010).

One data set concerns 3T3-L1 adipocytes. Nature of the data set: Triglyceride (Oil red O) accumulation during differentiation of 3T3-L1 adipocytes. The format is cell-based, mouse. As to conditions: for triglyceride accumulation in adipocytes: 50-micromolar (lowest concentration), added during the 7-days differentiation process; for lipid deposition (triglyceride accumulation) in adipocytes: 200-micromolar (4x higher concentration), added during differentiation, steviol dissolved with DMSO. The method, then:
3T3-L1 mouse preadipocytes were purchased from the American Type Culture Collection (ATCC). They are cultivated in DHG medium (Dulbecco's modified Eagle's medium+High Glucose 4.5 g/l, GibcoBRL) supplemented with 10% FCS (foetal calf serum, GibcoBRL) and incubated a 37 C+5% CO2 incubator in a humidified atmosphere. For pre-adipocyte differentiation, 3T3-L1 cells were seeded at 50% confluence 3 days before the beginning of the differentiation programme. Confluent cell monolayers (day 0) are switched for 48 h to media containing the adipogenic cocktail: “DHG-L1” medium (DHG that contains 1.5 g/l NaHCO3) supplemented with 10% FCS, 5 μg/ml insulin, 300 μM dibutyryl-cyclicAMP (dbcAMP) and 1 μM dexamethasone. The cells were then refeeded every other day with DHG-L1 containing 10% FCS and 5 μg/ml insulin. At the end, 80-90% of cells were differentiated. […]
To characterize the state of (de)differentiation obtained in the presence of the molecules of interest, triglycerides present in the cells were stained with Oil red O (a dye of the neutral lipids). The absorbance of cell monolayers at 490 nm was measured in a spectrophotometer.

For data set [1], the system named is everted gastrointestinal sacs of rats and Caco-2 cell layers. As to conditions: free steviol formed in the colon; cited from earlier work.
Data set [2] deals with mouse pancreatic islets, β-cell line INS-1. As to conditions: direct action on β-cells; cited from earlier work.
For data set [3] the following is noted: cited from earlier work.
In data set [4] the test system is atherosclerotic plaques of DKO mice. Nature of the data set: Atherosclerosis: morphometric and immunohistochemical analysis of aortic root cross sections of DKO mice. The format is in vivo, mouse. The following applies: 12 weeks. The method, then: Homozygous LDL-receptor-knockout mice (LDLR^(−/−)), heterozygous ob/+, and C57BL6 mice were purchased from Jackson Laboratory, Bar Harbor, Me. LDLR^(−/−) mice were backcrossed into a C57BL6 background to the 10th generation. To obtain DKO mice with combined leptin deficiency (ob/ob) and LDL-receptor deficiency, LDLR^(−/−) and ob/+ mice were crossed. All offspring were genotyped by polymerase chain reaction (PCR) techniques. All mice were housed at 22° C. on a fixed 12/12-hour light/dark cycle. Experimental procedures in animals were performed in accordance with protocols approved by the Institutional Animal Care and Research Advisory Committee. All mice were fed standard chow containing 4% fat (Pavan Service). Food intake was ≈5.7 g/d. Mice (about 50 g) were treated with stevioside (N=14; 10 mg/kg), steviol (N=9; 5 mg/kg) or placebo (N=17) for 12 weeks between 12 and 24 weeks of age. Stevioside (Molecular weight: 804) was dissolved in water (1 mg/ml) and 500 μl of the solution was administered orally. Steviol (Molecular weight: 318) was dissolved in water containing 6% NaHCO3 (1 mg/ml) and 250 μl of the solution was administered orally.
The extent of atherosclerosis was determined by analysis of cross sections from the aortic root. Approximately ten 7-μm frozen sections per staining per animal were used for morphometric and immunohistochemical analysis. Total plaque areas were measured on hematoxylin and eosin stained sections. Lipids were stained with oil-red O, and macrophage areas were stained with an antibody against mouse Mac-3 antigen (Pharmingen), and oxidized LDL with the monoclonal antibody 4E6. Blinded analysis of positive immunostained sections was performed with the Quantimet600 image analyzer (Leica).

[5] abbreviates: steviol 5 mg/kg vs stevioside 10 mg/kg orally.
Setting [6] is: stevioside 10 mg/kg or steviol 5 mg/kg orally.

For the molecule `C=C1C[C@@]23CC[C@H]4[C@@](C)(CCC[C@@]4(C)C(=O)OC4OC(C(=O)O)C(O)C(O)C4O)[C@@H]2CC[C@]1(O)C3` (stereo partly drawn) [steviol glucuronide, steviol-19-O-β-D-glucuronide], the “triglyceride accumulation in adipocytes” value in the data set with 3T3-L1 adipocytes is listed as “inhibited significantly”.

Regarding `C=C1C[C@@]23CC[C@H]4[C@@](C)(CCC[C@@]4(C)C(=O)O)[C@@H]2CC[C@]1(O)C3` [steviol, Kaur-16-en-18-oic acid, 13-hydroxy-, (4α)-], in data set [1], the “absorption of free steviol” value is “easily absorbed”. Also, the insulin secretion result in data set [2] was “stimulation of insulin secretion”. Further, in the data set on 3T3-L1 adipocytes, the “triglyceride accumulation in adipocytes” value was “did not significantly reduce” and the “lipid deposition (triglyceride accumulation) in adipocytes” value was “did not have an effect”. Further, the “transformation by human microsomes relative to rat microsomes” value in data set [3] (human vs rat liver microsomes) was “about 4 times lower”. For the same molecule, the “transformation of steviol by human microsomes” value in data set [3] (in vitro incubation with human liver microsomes) was “very low”. In addition, in data set [4] (setting [5]), the “SMC content of plaques, compared to stevioside” value is listed as “increased somewhat more” and the “plaque lipids, compared to stevioside” value is “decreased somewhat more”. Moreover, in data set [4] (setting [6]), the “lipid deposition in plaques” value is on record as “reducing”, the “macrophage deposition in plaques” value is “reducing”, the “oxLDL deposition in plaques” value is recorded as “reducing” and the plaque volume entry is on record as “lowered”. In addition, in data set [4] (setting [6]), the “smooth muscle cell (SMC)-to-macrophage ratio (proxy for plaque stability)” value was “increased”.

As to “Kaur-16-en-18-oic acid, 13-[(O-b-D-glucopyranosyl-(1→2)-O-[b-D-glucopyranosyl-(1→3)]-b-D-glucopyranosyl)oxy]-, b-D-glucopyranosyl ester, (4a)- [rebaudioside]”, in the data set on 3T3-L1 adipocytes, the “triglyceride accumulation in adipocytes” value was “did not significantly reduce” and the “lipid deposition (triglyceride accumulation) in adipocytes” value is “inhibited”.
